Experimental data taken from patent US20240254119A1 (THIRD HARMONIC BIO, INC., priority 2022, published 2024).
Values after ≈ are worked out from the molar mass of the structure shown.

Key:
wtKIT = molecular target: T1, wtKIT (Homo sapiens, UniProt P10721); experiment: Caliper biochemical assay, wtKIT; settings: Table 6, read-out: KIT Biochemical IC50 avg
T1 construct: 1888289AM in the reaction mixtures
Summary of the method: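 Enzyme (5.0 nM wtKIT), 1 μM FAM-labelled peptide, 400 μM ATP and 10 mM MnCl2 in HEPES pH 7.5 with 1% DMSO, incubated 3 h at 25° C. EDTA quench; substrate and phosphoproduct separated by microfluidic electrophoresis and quantified by fluorescence.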

CSF-1R = molecular target: T2, CSF-1R (Homo sapiens, UniProt P07333); experiment: Caliper biochemical assay, CSF-1R; settings: Table 6
T2 construct: purchased Invitrogen PV3249 (lot 662393N)
T2 sequence (P07333 20-972): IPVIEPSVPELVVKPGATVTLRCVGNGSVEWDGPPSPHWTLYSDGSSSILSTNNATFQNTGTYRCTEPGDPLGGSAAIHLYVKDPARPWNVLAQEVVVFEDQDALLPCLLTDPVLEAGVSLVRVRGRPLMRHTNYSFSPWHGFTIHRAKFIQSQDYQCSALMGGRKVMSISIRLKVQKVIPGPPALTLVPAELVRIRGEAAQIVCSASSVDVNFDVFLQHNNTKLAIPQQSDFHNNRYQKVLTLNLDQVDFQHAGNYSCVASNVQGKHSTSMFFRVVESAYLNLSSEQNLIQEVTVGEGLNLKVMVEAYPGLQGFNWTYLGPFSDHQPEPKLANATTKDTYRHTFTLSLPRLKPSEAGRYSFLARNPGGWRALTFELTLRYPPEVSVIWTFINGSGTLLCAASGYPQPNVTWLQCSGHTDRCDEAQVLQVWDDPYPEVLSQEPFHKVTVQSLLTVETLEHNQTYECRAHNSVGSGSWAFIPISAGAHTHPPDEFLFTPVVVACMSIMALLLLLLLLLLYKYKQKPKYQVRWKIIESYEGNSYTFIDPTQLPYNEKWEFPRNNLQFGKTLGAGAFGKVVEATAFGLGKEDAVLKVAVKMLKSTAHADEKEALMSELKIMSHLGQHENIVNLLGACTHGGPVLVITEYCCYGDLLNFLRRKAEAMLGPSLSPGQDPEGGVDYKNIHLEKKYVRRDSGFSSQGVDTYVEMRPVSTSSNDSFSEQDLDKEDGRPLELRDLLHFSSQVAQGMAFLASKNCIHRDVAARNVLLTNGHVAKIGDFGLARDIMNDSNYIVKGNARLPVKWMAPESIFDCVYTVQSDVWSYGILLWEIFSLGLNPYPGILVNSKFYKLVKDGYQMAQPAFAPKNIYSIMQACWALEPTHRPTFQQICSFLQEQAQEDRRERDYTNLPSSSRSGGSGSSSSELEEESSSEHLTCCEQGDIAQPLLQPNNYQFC
Summary of the method: (§1)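 Kinase, FAM-labelled peptide substrate, ATP and Mn^2+ incubated with compound for 3 h at 25° C, then quenched with EDTA buffer. Substrate and phosphorylated product separated by microfluidic electrophoresis and quantified by fluorescence intensity; no-enzyme wells define 100% inhibition.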

PDGFRα = molecular target: T3, PDGFRα (Homo sapiens, UniProt P16234); experiment: Caliper biochemical assay, PDGFRα; settings: Table 6
T3 construct: purchased Millipore 14-467 (lot 26321_ACTI)
T3 sequence (P16234 24-1089): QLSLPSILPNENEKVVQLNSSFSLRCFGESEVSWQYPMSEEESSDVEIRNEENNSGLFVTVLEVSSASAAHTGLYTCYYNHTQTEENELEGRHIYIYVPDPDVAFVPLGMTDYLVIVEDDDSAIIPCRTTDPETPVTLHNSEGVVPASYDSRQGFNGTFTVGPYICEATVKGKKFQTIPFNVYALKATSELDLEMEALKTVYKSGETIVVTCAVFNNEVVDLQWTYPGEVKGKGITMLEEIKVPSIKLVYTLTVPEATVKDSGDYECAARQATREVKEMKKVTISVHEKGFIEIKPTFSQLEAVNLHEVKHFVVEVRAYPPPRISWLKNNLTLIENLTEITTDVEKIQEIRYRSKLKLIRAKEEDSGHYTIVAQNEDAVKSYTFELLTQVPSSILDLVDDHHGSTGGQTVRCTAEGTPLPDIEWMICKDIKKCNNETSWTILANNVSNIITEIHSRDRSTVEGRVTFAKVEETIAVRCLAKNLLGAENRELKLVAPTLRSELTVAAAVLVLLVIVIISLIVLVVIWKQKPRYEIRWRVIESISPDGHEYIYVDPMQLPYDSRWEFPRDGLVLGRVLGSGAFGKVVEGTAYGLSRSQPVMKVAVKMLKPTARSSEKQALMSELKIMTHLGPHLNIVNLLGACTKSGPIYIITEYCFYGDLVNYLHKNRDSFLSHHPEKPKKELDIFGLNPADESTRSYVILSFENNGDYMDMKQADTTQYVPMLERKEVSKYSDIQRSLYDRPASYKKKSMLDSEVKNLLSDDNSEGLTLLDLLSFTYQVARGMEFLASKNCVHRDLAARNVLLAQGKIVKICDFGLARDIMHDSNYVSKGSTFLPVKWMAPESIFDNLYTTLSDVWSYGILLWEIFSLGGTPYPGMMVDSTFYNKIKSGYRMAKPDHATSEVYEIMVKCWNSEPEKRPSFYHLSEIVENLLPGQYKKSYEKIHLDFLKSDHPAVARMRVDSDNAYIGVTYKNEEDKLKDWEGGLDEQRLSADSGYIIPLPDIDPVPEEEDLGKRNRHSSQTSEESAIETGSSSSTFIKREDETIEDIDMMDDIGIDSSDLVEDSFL
Summary of the method: as §1

[1] = molecular target: T4, BCRP (BCRP-MDCKII monolayer) (Homo sapiens, UniProt Q9UNQ0); experiment: MDCKII-BCRP bidirectional transport assay; type: in vitro ADME; settings: for MDCK-BCRP: Papp A-B: apical to basolateral
T4 construct: host or cells: MDCKII (canine kidney) cells
T4 sequence (Q9UNQ0 1-655): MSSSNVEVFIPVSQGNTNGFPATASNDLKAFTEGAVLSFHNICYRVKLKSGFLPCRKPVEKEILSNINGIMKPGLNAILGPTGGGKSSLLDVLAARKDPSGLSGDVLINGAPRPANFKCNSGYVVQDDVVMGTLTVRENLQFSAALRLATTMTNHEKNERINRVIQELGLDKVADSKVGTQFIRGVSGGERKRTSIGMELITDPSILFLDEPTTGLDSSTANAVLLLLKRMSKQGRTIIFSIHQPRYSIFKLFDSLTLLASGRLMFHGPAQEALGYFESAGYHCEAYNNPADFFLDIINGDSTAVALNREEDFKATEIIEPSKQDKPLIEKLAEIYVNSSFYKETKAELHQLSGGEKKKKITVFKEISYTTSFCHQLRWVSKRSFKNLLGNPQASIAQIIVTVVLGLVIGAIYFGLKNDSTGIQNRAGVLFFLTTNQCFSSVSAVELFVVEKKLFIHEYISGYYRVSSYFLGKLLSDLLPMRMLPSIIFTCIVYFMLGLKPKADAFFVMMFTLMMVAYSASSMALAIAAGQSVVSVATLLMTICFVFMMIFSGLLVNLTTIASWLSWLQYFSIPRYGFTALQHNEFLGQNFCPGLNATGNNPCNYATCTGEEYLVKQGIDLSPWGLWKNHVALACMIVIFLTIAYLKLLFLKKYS
Summary of the method: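 Bidirectional A→B and B→A transport across PreadyPort BCRP-MDCKII monolayers (days 12–15) was run in duplicate for 120 min at 37° C, 5% CO2 after a 15 min preincubation. Compound levels were measured by LC-MS/MS. Papp and recovery were calculated, with efflux ratio indicating transporter engagement.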

Kinetic solubility assay = type: physicochemical; settings: for Solubility (μM): kinetic solubility, 50 mM PB (pH 7.4), shaken 24 hours at RT
Summary of the method: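 Test compounds from 10 mM DMSO stock were diluted in 50 mM phosphate buffer, pH 7.4, and shaken for 24 h at RT. After PTFE filtration and centrifugation, filtrate concentration was quantified by UPLC-UV/HPLC-UV against a standard curve.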

T1 sequence (P10721 26-976): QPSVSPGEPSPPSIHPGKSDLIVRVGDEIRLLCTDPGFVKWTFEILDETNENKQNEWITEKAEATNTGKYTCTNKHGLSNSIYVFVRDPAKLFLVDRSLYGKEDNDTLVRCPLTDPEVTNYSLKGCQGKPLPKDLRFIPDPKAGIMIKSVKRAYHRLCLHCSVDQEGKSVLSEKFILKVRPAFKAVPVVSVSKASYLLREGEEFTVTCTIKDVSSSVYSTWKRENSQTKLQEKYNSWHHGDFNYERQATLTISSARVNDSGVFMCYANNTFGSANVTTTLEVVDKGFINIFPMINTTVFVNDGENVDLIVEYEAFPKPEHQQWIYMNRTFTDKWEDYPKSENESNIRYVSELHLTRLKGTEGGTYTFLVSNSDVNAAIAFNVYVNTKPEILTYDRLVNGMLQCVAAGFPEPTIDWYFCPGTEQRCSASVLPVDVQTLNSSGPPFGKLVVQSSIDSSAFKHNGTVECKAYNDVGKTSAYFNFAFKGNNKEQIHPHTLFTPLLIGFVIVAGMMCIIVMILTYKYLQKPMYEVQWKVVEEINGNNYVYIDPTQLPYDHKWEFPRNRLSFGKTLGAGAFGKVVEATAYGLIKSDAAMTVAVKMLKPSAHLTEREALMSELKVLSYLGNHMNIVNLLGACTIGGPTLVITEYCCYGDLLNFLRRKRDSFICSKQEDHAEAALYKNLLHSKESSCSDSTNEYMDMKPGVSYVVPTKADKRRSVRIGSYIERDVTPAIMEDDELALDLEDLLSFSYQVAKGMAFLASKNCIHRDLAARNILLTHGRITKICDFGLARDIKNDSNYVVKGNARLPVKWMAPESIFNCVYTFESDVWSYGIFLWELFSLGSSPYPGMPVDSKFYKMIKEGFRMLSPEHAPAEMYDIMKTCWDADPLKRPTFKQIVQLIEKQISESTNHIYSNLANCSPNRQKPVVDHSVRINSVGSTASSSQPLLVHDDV

Compound | IC50 (wtKIT) [nM] | IC50 (CSF-1R) [nM] | IC50 (PDGFRα) [nM] | MDCK-BCRP: Efflux Ratio [1] | MDCK-BCRP: Papp A-B [1] | Solubility (μM) (Kinetic solubility assay) | solubility at 24 h (Kinetic solubility assay; phosphate buffer, pH 7.4, aqueous buffer, kinetic from dmso stock) [µM]
Cc1ccc(-c2noc(C3CCC(F)C3)n2)cc1NC(=O)c1cnc2ccccn12 (racemic) [Compound I-319] | ≤ 50 | ≤ 50 | 50 to 500 | 1.02 | 13.1 10^−6 cm/s | *** (a solubility greater than 2 μM and less than or equal to 10 μM) | 
O=C(Nc1cc(-c2noc([C@H]3C[C@@H]3F)n2)ccc1Br)c1cnc2ccccn12 [Compound I-340] | ≤ 50 | ≤ 50 | 50 to 500 | 0.28 | 80.4 10^−6 cm/s | **** (a solubility less than or equal to 2 μM) | 
Cc1ccc(-c2noc(C3CCC3F)n2)cc1NC(=O)c1cnc2ccccn12 (racemic) [Compound I-376] | ≤ 50 | ≤ 50 | 50 to 500 | 1.02 | 6.24 10^−6 cm/s | **** (a solubility less than or equal to 2 μM) | 
Cc1ccc(-c2noc(C(C)NS(C)(=O)=O)n2)cc1NC(=O)c1cnc2ccccn12 (single isomer, unassigned) [Compound I-237] | 50 to 500 | 500 to 5000 | 5000 to 30000 | 11.5 | 1.66 10^−6 cm/s | ** (a solubility greater than 10 μM and less than or equal to 50 μM) | 
Cc1ccc(-c2noc(CC(O)C(F)F)n2)cc1NC(=O)c1cnc2ccccn12 (stereo not shown) [Compound I-122] |  |  |  | 29.4 | 1.63 10^−6 cm/s | **** (a solubility less than or equal to 2 μM) | 
Cc1ccc(-c2noc(C3CC4(CCC4)C3)n2)cc1NC(=O)c1cnc2ccccn12 [Compound I-367] | ≤ 50 | ≤ 50 | ≤ 50 | 1.18 | 0.83 10^−6 cm/s | **** (a solubility less than or equal to 2 μM) | 
Cc1ccc(-c2noc(C3CC(C)(F)C3)n2)cc1NC(=O)c1cnc2ccccn12 (stereo not shown) [Compound I-387] | ≤ 50 | ≤ 50 | 50 to 500 | 0.82 | 13.8 10^−6 cm/s | *** (a solubility greater than 2 μM and less than or equal to 10 μM) | 
CNC(=O)N1CC(c2nc(-c3ccc(C)c(NC(=O)c4cnc5ccccn45)c3)no2)C1 [Compound I-282] | ≤ 50 | 5000 to 30000 | 5000 to 30000 | 28.1 | 0.55 10^−6 cm/s | ** (a solubility greater than 10 μM and less than or equal to 50 μM) | 
COC(=O)N1CC(c2nc(-c3ccc(Cl)c(NC(=O)c4cnc5ccccn45)c3)no2)C1 [Compound I-339] | ≤ 50 | ≤ 50 | 500 to 5000 | 1.75 | 13 10^−6 cm/s | **** (a solubility less than or equal to 2 μM) | 
CCOc1ccn2c(C(=O)Nc3cc(-c4noc([C@H]5C[C@@H]5F)n4)ccc3C)cnc2c1 [Compound I-93] |  |  |  | 1.16 | 21 10^−6 cm/s | **** (a solubility less than or equal to 2 μM) | 
Cc1ccc(-c2noc([C@H]3C[C@@H]3F)n2)cc1NC(=O)c1cnc2ccc(C#N)cn12 [Compound I-384] | ≤ 50 | ≤ 50 | 5000 to 30000 | 12.9 | 0.59 10^−6 cm/s | **** (a solubility less than or equal to 2 μM) | 
Cc1ccc(-c2noc([C@H]3CC(F)(F)CN3)n2)cc1NC(=O)c1cnc2ccccn12 [Compound I-359] | ≤ 50 | 50 to 500 | 500 to 5000 | 7.14 | 4.68 10^−6 cm/s | * (a solubility greater than 50 μM) | 
Cc1ccc(-c2noc(C(C)NS(C)(=O)=O)n2)cc1NC(=O)c1cnc2ccccn12 (single isomer, unassigned) [Compound I-238] | ≤ 50 | 50 to 500 | 5000 to 30000 | 22.7 | 0.92 10^−6 cm/s | * (a solubility greater than 50 μM) | 
Cc1ccc(-c2cnc(N3CC(F)(F)C3)o2)cc1NC(=O)c1cnc2ccccn12 [Compound I-213] | ≤ 50 |  |  | 1.42 | 20.6 10^−6 cm/s | **** (a solubility less than or equal to 2 μM) | 
Cc1ccc(-c2noc([C@H]3C[C@@H]3F)n2)cc1NC(=O)c1cnc2cc(COCC(C)(C)O)ccn12 [Compound I-71, N-[5-[5-[(1R,2S)-2-fluorocyclopropyl]-1,2,4-oxadiazol-3-yl]-2-methyl-phenyl]-7-[(2-hydroxy-2-methyl-propoxy)methyl]imidazo[1,2-a]pyridine-3-carboxamide] | ≤ 50 | ≤ 50 | 500 to 5000 |  |  |  | 10 to 50 (≈ 4.8 to 24 µg/mL)
COc1ccc2ncc(C(=O)Nc3cc(-c4noc(C[C@@H](C)O)n4)ccc3C)n2c1 [Compound I-119] |  |  |  |  |  | **** (a solubility less than or equal to 2 μM) | 
COc1ccn2c(C(=O)Nc3cc(-c4noc(C5CC(F)(F)C5)n4)ccc3C)cnc2c1 [Compound I-96] |  |  |  | 1.44 | 8.58 10^−6 cm/s | **** (a solubility less than or equal to 2 μM) | 
Cc1ccc(-c2noc(C3(O)CC(F)(F)C3)n2)cc1NC(=O)c1cnc2ccccn12 [Compound I-380] | ≤ 50 |  |  | 14.2 | 1.21 10^−6 cm/s | **** (a solubility less than or equal to 2 μM) | 
COc1ccn2c(C(=O)Nc3cc(-c4noc(CC(O)C(F)F)n4)ccc3C)cnc2c1 (single isomer, unassigned) [Compound I-76] |  |  |  |  |  | **** (a solubility less than or equal to 2 μM) | 
Cc1ccc(-c2noc(CC(C)(C)O)n2)cc1NC(=O)c1cnc2ccccn12 [Compound I-336] | 50 to 500 |  |  | 19.9 | 1.92 10^−6 cm/s | * (a solubility greater than 50 μM) | 
Cc1ccc(-c2noc(C3CCS(=O)(=O)C3)n2)cc1NC(=O)c1cnc2ccccn12 (racemic) [Compound I-389] | 50 to 500 |  |  | 54.3 | 0.87 10^−6 cm/s | ** (a solubility greater than 10 μM and less than or equal to 50 μM) | 
Cc1ccc(-c2noc([C@H]3C[C@@H]3F)n2)cc1NC(=O)c1cnc2cc(OC(F)(F)F)ccn12 [Compound I-87] |  |  |  | 0.71 | 30.4 10^−6 cm/s | **** (a solubility less than or equal to 2 μM) | 
COCCOCc1ccn2c(C(=O)Nc3cc(-c4noc([C@H]5C[C@@H]5F)n4)ccc3C)cnc2c1 [Compound I-84] |  |  |  | 2.28 | 20.7 10^−6 cm/s | ** (a solubility greater than 10 μM and less than or equal to 50 μM) | 
COc1ccn2c(C(=O)Nc3cc(-c4noc(CC5CC(F)(F)C5)n4)ccc3C)cnc2c1 [Compound I-91] |  |  |  | 1.76 | 1.11 10^−6 cm/s | **** (a solubility less than or equal to 2 μM) | 
Cc1ccc(-c2noc([C@H]3C[C@@H]3F)n2)cc1NC(=O)c1cnn2ccccc12 [Compound I-109] |  |  |  | 1.12 | 88.7 10^−6 cm/s | **** (a solubility less than or equal to 2 μM) | 
COc1ccn2c(C(=O)Nc3cc(-c4noc(C[C@H](C)O)n4)ccc3C)cnc2c1 [Compound I-94] |  |  |  | 8.04 | 5.19 10^−6 cm/s | **** (a solubility less than or equal to 2 μM) | 
